{
  "source": "patent US11026999B2",
  "about": "“Insulin glargine/lixisenatide fixed ratio formulation” (SANOFI-AVENTIS DEUTSCHLAND GMBH, priority 2013, dated 2021)",
  "key": {"type 2 diabetic patients [1]": {"tested_on": "type 2 diabetic patients", "assay": "7-point Self-Monitored Plasma Glucose (SMPG) profile (Example 1)", "format": "in vivo, human", "conditions": "mITT population", "excerpt": "In yet another aspect of the present invention, the composition as described herein can be used for improving average 7-point SMPG profile. […] Self-monitored plasma glucose (SMPG), as used herein, is in particular the “7-point Self Monitored Plasma Glucose”. “7-point Self Monitored Plasma Glucose” in particular refers to the measurement of plasma glucose seven times a day and calculation of the average plasma glucose concentration therefrom. The “7-point Self Monitored Plasma Glucose” value is in particular an average plasma glucose concentration including fasting and postprandial conditions. In particular, measurements of plasma glucose concentration are performed pre-breakfast, post-breakfast (e.g. 2-hour post-breakfast), pre-lunch, post-lunch (e.g. 2-hour post-lunch), pre-dinner, post-dinner (e.g. 2-hour post-dinner) and at bedtime (see also FIG. 3). The treatment by the combination of the present invention, as described herein, can improve the self-monitored plasma glucose.\n(§1) Criteria for Evaluation: • Efficacy: • Primary Endpoint: • Change in HbA1c from baseline to Week 24 • Secondary Endpoints: • Change in 2-hour PPG during meal test from baseline to Week 24 • Change in 2-hour plasma glucose excursion during meal test from baseline to Week 24 • Percentage of patients reaching HbA1c ≤6.5% or <7% at Week 24 • Change in 7-point SMPG profiles from baseline to Week 24 (each time point and mean daily value) • Change in body weight from baseline to Week 24, • Average daily Insulin glargine dose at Week 24 • Change in FPG from baseline to Week 24 • Percentage of patients requiring rescue therapy during the 24-week open-label treatment period • Change in 30-minute and 1-hour PPG and plasma glucose excursion during meal test from baseline to week 24 • Percentage of patients reaching HbA1c <7% at week 24 with no documented symptomatic hypoglycemia during the 24-week open label treatment period • Percentage of patients reaching HbA1c <7% with no weight gain at week 24\n(§2) All continuous secondary efficacy endpoints were analyzed using a similar ANCOVA model with treatment, randomization strata of screening HbA1c (<8%, ≥8%), randomization strata of screening BMI (<30 kg/m^2, ≥30 kg/m^2) and country as fixed effects and using the baseline value of the corresponding parameter as a covariate. Insulin glargine dose was not included in the ANCOVA model as a covariate since patients enrolled were insulin-naïve."}, "Body weight (Example 1)": {"assay": "Body weight (Example 1)", "format": "in vivo, human", "conditions": "for Body weight change from baseline to Week 24 (LOCF), LS Mean (SE): ANCOVA", "excerpt": "as §1, §2"}, "type 2 diabetic patients [2]": {"tested_on": "type 2 diabetic patients", "assay": "HbA1c, 24-week phase 2 study on top of metformin (Example 1)", "format": "in vivo, human", "conditions": "mITT population; for HbA1c change from baseline to Week 24 (LOCF), LS Mean (SE): ANCOVA", "protocol": "A randomized, 24-week, open-label, 2-arm parallel-group, multicenter study comparing the efficacy and safety of insulin glargine/lixisenatide fixed ratio combination versus insulin glargine on top of metformin in type 2 diabetic patients.\nMethodology: This was an open-label, 1:1 randomized, active-controlled, 2-arm, 24-week duration, parallel-group study comparing: • Insulin glargine/lixisenatide fixed ratio (2 U of insulin glargine for 1 μg of lixisenatide) combination • Insulin glargine alone\nDiagnosis and criteria for inclusion: Patients with type 2 diabetes mellitus diagnosed for at least 1 year, treated with metformin at a stable dose of at least 1.5 g/day for at least 3 months prior to screening visit, and with HbA1c ≥7%, and ≤10% at screening.\nIn both groups, the initial daily dose of insulin glargine to be administered during the first week of treatment was 10 U. Afterwards, the dose was adjusted to achieve a target fasting SMPG in the range of 80 to 100 mg/dL (4.4 to 5.6 mmol/L). The dose was titrated weekly until the patient reached the target fasting SMPG. Thereafter, until the end of the study, the dose was adjusted as necessary to maintain a fasting SMPG between 80 and 100 mg/dL (4.4 and 5.6 mmol/1), inclusive. Doses could be reduced or modified at any time for hypoglycemia.\nIf a 60 U/30 μg dose was not sufficient to maintain FPG/HbA1c below predefined thresholds values, the dose was to be kept at 60 U and a rescue therapy was to be introduced.\nas §1\nThe primary endpoint (change in HbA1c from baseline to week 24) was analyzed using an analysis of covariance (ANCOVA) model with treatment (insulin glargine/lixisenatide fixed ratio combination, insulin glargine alone), randomization strata of screening HbA1c (<8%, ≥8%), randomization strata of screening BMI (<30 kg/m^2, ≥30 kg/m^2) and country as fixed effects and using the baseline HbA1c value as a covariate.\nThe non-inferiority of insulin glargine/lixisenatide fixed ratio combination to insulin glargine alone was tested using a 1-sided statistical test with alpha level of 0.025 and a non-inferiority margin of 0.4% HbA1c. […] If non-inferiority is established, then a corresponding check of statistical superiority of insulin glargine/lixisenatide fixed ratio combination over insulin glargine alone would be performed for the primary endpoint.\nAll categorical secondary efficacy endpoints were analyzed by using Cochran-Mantel-Haenszel (CMH) method stratified by randomization strata of screening HbA1c (<8%, ≥8%) and BMI (<30 kg/m^2, ≥30 kg/m^2)."}, "type 2 diabetic patients [3]": {"tested_on": "type 2 diabetic patients", "assay": "Premature treatment discontinuation, patient disposition (Example 1)", "conditions": "human, in vivo", "excerpt": "During the 24-week study treatment period, 11 (6.8%) combination-treated patients prematurely discontinued the IMP, compared with 3 (1.9%) insulin glargine-treated patients. For combination-treated patients, the most common reasons for treatment discontinuation was “adverse event” (6 patients [3.7%] versus 0 patient in the insulin glargine group) followed by “other reasons” (4 patients [2.5%] versus 2 patients [1.2%] in the insulin glargine group)."}},
  "data": [
    {"substance": "Gly(A21)-Arg(B31)-Arg(B32)-human insulin [Insulin Glargine]", "values": [
      {"measurement": "Average 7-point SMPG at Week 24 (LOCF), Mean (SD)", "setting": "type 2 diabetic patients [1]", "result": "7.01 (1.15) mmol/L"},
      {"measurement": "Average 7-point SMPG at Week 24 (LOCF), Median", "setting": "type 2 diabetic patients [1]", "result": 6.94, "unit": "mmol/L"},
      {"measurement": "Average 7-point SMPG change from baseline to Week 24 (LOCF), Mean (SD)", "setting": "type 2 diabetic patients [1]", "result": "−2.81 (2.18) mmol/L"},
      {"measurement": "Average 7-point SMPG change from baseline to Week 24 (LOCF), Median", "setting": "type 2 diabetic patients [1]", "result": -2.31, "unit": "mmol/L"},
      {"measurement": "Average 7-point SMPG change from baseline to Week 24 (LOCF), LS Mean (SE)", "setting": "type 2 diabetic patients [1]; ANCOVA", "result": "−2.93 (0.101) mmol/L"},
      {"measurement": "Body weight at Week 24 (LOCF), Mean (SD)", "setting": "Body weight (Example 1); mITT population", "result": "92.09 (16.30) kg"},
      {"measurement": "Body weight at Week 24 (LOCF), Median", "setting": "Body weight (Example 1); mITT population", "result": 91.00, "unit": "kg"},
      {"measurement": "Body weight change from baseline to Week 24 (LOCF), Mean (SD)", "setting": "Body weight (Example 1); mITT population", "result": "0.39 (2.96) kg"},
      {"measurement": "Body weight change from baseline to Week 24 (LOCF), Median", "setting": "Body weight (Example 1); mITT population", "result": 0.35, "unit": "kg"},
      {"measurement": "Body weight change from baseline to Week 24 (LOCF), LS Mean (SE)", "setting": "Body weight (Example 1); mITT population", "result": "0.48 (0.282) kg"},
      {"measurement": "Body weight change from baseline to Week 24 (LOCF), LS Mean (SE)", "setting": "Body weight (Example 1); mITT population, listed as insulin glargine", "result": "+0.48 kg"},
      {"measurement": "LS mean body weight increase from baseline to week 24", "setting": "Body weight (Example 1); worded as increased by", "result": 0.48, "unit": "kg"},
      {"measurement": "HbA1c at Week 24 (LOCF), Mean (SD)", "setting": "type 2 diabetic patients [2]", "result": "6.47 (0.64) %"},
      {"measurement": "HbA1c at Week 24 (LOCF), Median", "setting": "type 2 diabetic patients [2]", "result": 6.40, "unit": "%"},
      {"measurement": "HbA1c change from baseline to Week 24 (LOCF), Mean (SD)", "setting": "type 2 diabetic patients [2]", "result": "−1.54 (0.87) %"},
      {"measurement": "HbA1c change from baseline to Week 24 (LOCF), Median", "setting": "type 2 diabetic patients [2]", "result": "−1.40", "unit": "%"},
      {"measurement": "Number (%) of patients with HbA1c <7.0% at Week 24", "setting": "type 2 diabetic patients [2]", "result": "126 (78.3%) n (%)"},
      {"measurement": "Number (%) of patients with HbA1c ≤6.5% at Week 24", "setting": "type 2 diabetic patients [2]", "result": "104 (64.6%) n (%)"},
      {"measurement": "Percentage of patients reaching HbA1c <7% at Week 24", "setting": "type 2 diabetic patients [2]", "result": 78.3, "unit": "%"},
      {"measurement": "Percentage of patients reaching HbA1c ≤6.5% at Week 24", "setting": "type 2 diabetic patients [2]", "result": 64.6, "unit": "%"},
      {"measurement": "HbA1c change from baseline to Week 24 (LOCF), LS Mean (SE)", "setting": "type 2 diabetic patients [2]", "result": "−1.64 (0.057) %"},
      {"measurement": "HbA1c change from baseline to Week 24 (LOCF), LS Mean (SE)", "setting": "type 2 diabetic patients [2]; listed as insulin glargine", "result": "−1.64", "unit": "%"},
      {"measurement": "Patients who prematurely discontinued the IMP", "setting": "type 2 diabetic patients [3]", "result": "3 (1.9%) n (%)"},
      {"measurement": "Treatment discontinuation, reason adverse event", "setting": "type 2 diabetic patients [3]", "result": "0 n (%)"}
    ]}
  ]
}
